The values that follow come from patent publication US20050203102A1, “antibacterial agents” (priority 2004, published 2005).

Holding throughout (experiment): Antimicrobial testing, Agar Dilution Method (NCCLS), MIC
Format in all cases: cell-based
On the technique in general: Agar dilution tests growth on a series of plates holding different concentrations.

Experiment [1] concerns E. faecalis ATCC 29212. The conditions noted are these: Enterococcus faecalis, ATCC29212, Mueller Hinton Agar, 35° C., 20 hours, read-out: Antimicrobial Screening (MIC) E. faecalis ATCC 29212. How it is done:
(§1) Briefly, the compounds of invention were weighed, dissolved in Dimethyl Sulfoxide, serially diluted in the same solvent and then incorporated into molten Mueller Hinton Agar in a petridish before solidification, with each petridish containing a different concentration of a compound.
(§2) The Bacterial Inoculum was prepared by touching the tops of 3 to 5 well isolated bacterial colonies with the same morphological appearance from an 18 hour old culture with an inoculating loop, transferring the growth to a tube containing 5 ml of normal saline and adjusting the turbidity of the saline suspension to 0.5 Macfarland Turbidity Standard equivalent to a bacterial population of 1.5×10^8 colony forming units (CFU) per millilitre of suspension.
(§3) The bacterial inoculum prepared in the above manner was inoculated onto petri dishes containing Mueller Hinton Agar which had earlier been incorporated with different dilutions of the compounds of invention by a Multipoint Inoculator with each inoculum spot containing approximately 1×10^4 colony forming units (CFU) of bacteria.
(§4) The inoculated petridishes were incubated at 35° C. in an ambient atmosphere for 20 hours. Petridishes containing different concentrations of Vancomycin and Oxacillin and inoculated with Staphylococcus aureus, Coagulase Negative Staphylococci and Enterococci were incubated for 24 hours.
(§5) The following minimum inhibitory concentrations (μg/ml) were obtained for representative compounds of the invention which are given in the following table: […]

Experiment [2] relates to E. faecium ATCC 700221. The note with it: Enterococcus faecium, ATCC700221, Mueller Hinton Agar, 35° C., 20 hours, read-out: Antimicrobial Screening (MIC) E. faecium ATCC 700221. As to the method: as §1, §2, §3, §4, §5
The test system of experiment [3] is S. epidermidis MRO 02002. The conditions noted are these: Staphylococcus epidermidis, MRO02002, Mueller Hinton Agar, 35° C., 20 hours, read-out: Antimicrobial Screening (MIC) S. epidermidis MRO 02002. As to the method:
as §1, §2, §3, §4, §5

Experiment [4] deals with S. aureus MRO 00001. The note with it: Staphylococcus aureus, MRO00001, Mueller Hinton Agar, 35° C., 20 hours, read-out: Antimicrobial Screening (MIC) S. aureus MRO 00001. As to the method:
as §1, §2, §3, §4, §5

≈ marks a conversion by molar mass, not a printed value.

`CC(=O)NC[C@H]1CN(c2ccc(N3CCN(c4ccc(/C=C5/SC(=O)NC5=O)cc4)CC3)c(F)c2)C(=O)O1` [Example 4]: the minimum inhibitory concentration (MIC) in experiment [1], in experiment [2], in experiment [3] and in experiment [4] was 1 µg/mL (≈ 1.85 µM) in each case.
For the compound `CC(=O)NC[C@H]1CN(c2ccc(N3CCN(c4ccc(C=O)cc4)CC3)c(F)c2)C(=O)O1` [Example 1], the minimum inhibitory concentration (MIC) in experiment [1] stood at 2 µg/mL (≈ 4.54 µM); in experiment [2], 1 µg/mL (≈ 2.27 µM); in experiment [3], 1 µg/mL (≈ 2.27 µM); in experiment [4], 1 µg/mL (≈ 2.27 µM).
As for `CCOC(=O)NC[C@H]1CN(c2ccc(N3CCN(c4ccc(/C=C5/SC(=S)N(CC(=O)O)C5=O)cc4)CC3)c(F)c2)C(=O)O1` [Example 12], the MIC in experiment [1], in experiment [2], in experiment [3] and in experiment [4] was above 16 µg/mL in each case.
Regarding `CCOC(=O)NC[C@H]1CN(c2ccc(N3CCN(c4ccc(CC5C(=O)Nc6ccccc65)cc4)CC3)c(F)c2)C(=O)O1` (some centres unmarked) [Example 15], the minimal inhibitory concentration (MIC) in experiment [1], in experiment [2], in experiment [3] and in experiment [4] was above 16 µg/mL throughout.
Turning to `COC(=O)NC[C@H]1CN(c2ccc(N3CCN(c4ccc(CC5SC(=O)NC5=O)cc4)CC3)c(F)c2)C(=O)O1` (stereo partly drawn) [Example 14, [(5S)-3-[3-fluoro-4-(4-(5-methy-1,3-thiazolidine-2,4-dione)phenylpiperazin-1-yl)phenyll-1,3-oxazolidin-2-one-5-methyl carbamate], the MIC in experiment [1] turned out to be 8 µg/mL (≈ 14.3 µM); in experiment [2] it was 4 µg/mL (≈ 7.17 µM); in experiment [3] it was 8 µg/mL (≈ 14.3 µM); in experiment [4], 8 µg/mL (≈ 14.3 µM).
Take `CC(=O)NC[C@H]1CN(c2ccc(N3CCN(c4ccc(CC5SC(=O)NC5=O)cc4)CC3)c(F)c2)C(=O)O1` (some centres unmarked) [Example 7]: the MIC in experiment [1], in experiment [2], in experiment [3] and in experiment [4] was 8 µg/mL (≈ 14.8 µM) in each case.
In the case of `CC(=O)NC[C@H]1CN(c2ccc(N3CCN(c4ccc(/C=C5/SC(=S)NC5=O)cc4)CC3)c(F)c2)C(=O)O1` [Example 5], the MIC in experiment [1] was 2 µg/mL (≈ 3.6 µM); in experiment [2], 1 µg/mL (≈ 1.8 µM); in experiment [3] it was 1 µg/mL (≈ 1.8 µM); in experiment [4], 1 µg/mL (≈ 1.8 µM).
Take `CCOC(=O)NC[C@H]1CN(c2ccc(N3CCN(c4ccc(CC5SC(=S)NC5=O)cc4)CC3)c(F)c2)C(=O)O1` (some centres unmarked) [Example 16]: the MIC in experiment [1], in experiment [2], in experiment [3] and in experiment [4] was above 16 µg/mL throughout.
`CC(=O)NC[C@H]1CN(c2ccc(N3CCN(c4ccc(CC5C(=O)Nc6ccccc65)cc4)CC3)c(F)c2)C(=O)O1` (some centres unmarked) [Example 6]: the MIC in experiment [1], in experiment [2], in experiment [3] and in experiment [4] was 4 µg/mL (≈ 7.17 µM) each time.
Regarding `CCOC(=O)NC[C@H]1CN(c2ccc(N3CCN(c4ccc(/C=C5/SC(=S)NC5=O)cc4)CC3)c(F)c2)C(=O)O1` [Example 13], the minimum inhibitory concentration (MIC) in experiment [1], in experiment [2], in experiment [3] and in experiment [4] was above 16 µg/mL in each case.
For the compound `COC(=O)NC[C@H]1CN(c2ccc(N3CCN(c4ccc(CC5C(=O)Nc6ccccc65)cc4)CC3)c(F)c2)C(=O)O1` (some centres unmarked) [Example 17], the MIC in experiment [1], in experiment [2], in experiment [3] and in experiment [4] was 4 µg/mL (≈ 6.97 µM) in each case.
In the case of `COC(=O)NC[C@H]1CN(c2ccc(N3CCN(c4ccc(/C=C5\SC(=O)NC5=O)cc4)CC3)c(F)c2)C(=O)O1` [Example 9, (S)-N-3-13-fluoro-4-(4-(5-methylene-1,3-thiazolidine-2,4-dione)phenylpiperazin-1-yl)phenyll-1,3-oxazolidin-2-one-5-methyl carbamate], the MIC in experiment [1] is 1 µg/mL (≈ 1.8 µM); in experiment [2] it was 0.5 µg/mL (≈ 0.9 µM); in experiment [3], 2 µg/mL (≈ 3.6 µM); in experiment [4], 1 µg/mL (≈ 1.8 µM).
`CC(=O)NC[C@H]1CN(c2ccc(N3CCN(c4ccc(/C=C5/SC(=S)N(CC(=O)O)C5=O)cc4)CC3)c(F)c2)C(=O)O1` [Example 2]: the MIC in experiment [1], in experiment [2], in experiment [3] and in experiment [4] was 2 µg/mL (≈ 3.26 µM) each time.
`COC(=O)NC[C@H]1CN(c2ccc(N3CCN(c4ccc(/C=C5/SC(=S)NC5=O)cc4)CC3)c(F)c2)C(=O)O1` [Example 11]: the MIC in experiment [1], in experiment [2], in experiment [3] and in experiment [4] was above 16 µg/mL in each case.
`COC(=O)NC[C@H]1CN(c2ccc(N3CCN(c4ccc(/C=C5/SC(=S)N(CC(=O)O)C5=O)cc4)CC3)c(F)c2)C(=O)O1` [Example 10]: the MIC in experiment [1], in experiment [2], in experiment [3] and in experiment [4] was 8 µg/mL (≈ 12.7 µM) throughout.
For `COC(=S)NC[C@H]1CN(c2ccc(N3CCN(c4ccc(/C=C5\SC(=O)NC5=O)cc4)CC3)c(F)c2)C(=O)O1` [Example 8, (S)-N-3-[3-fluoro-4-(4-(5-methylene-1,3-thiazolidine-2,4-dione)phenylpiperazin-1-yl)phenyll-1,3-oxazolidin-2-one-5-methylthio carbamate], the minimal inhibitory concentration (MIC) in experiment [1], in experiment [2], in experiment [3] and in experiment [4] was 0.5 µg/mL (≈ 0.875 µM) in each case.
Consider `CC(=O)NC[C@H]1CN(c2ccc(N3CCN(c4ccc(/C=C5\C(=O)Nc6ccccc65)cc4)CC3)c(F)c2)C(=O)O1` [Example 3], for which the MIC in experiment [1] was above 16 µg/mL; in experiment [2], 16 µg/mL (≈ 28.8 µM); in experiment [3], above 16 µg/mL; in experiment [4], above 16 µg/mL.

One may read the MIC as the lowest concentration that inhibits growth of the organism.
